Measurements published in US12404232B2, “Compounds and compositions for intracellular delivery of therapeutic agents” (ModernaTX, Inc., priority 2015, dated 2025).

Assays:
[1] = Particle size and polydispersity index of nanoparticle compositions (Zetasizer Nano ZS); type: physicochemical
How it was run: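 Particle size and PDI by Zetasizer Nano ZS dynamic light scattering in 1×PBS. Lipid nanoparticles carried mRNA (luciferase or hEPO) with ionizable lipid:DSPC:cholesterol:PEG-DMG at 50:10:38.5:1.5 mol %.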

[2] = test system: mice; experiment: hEPO expression in mice after intravenous administration; type: in vivo; details: for hEPO expression (pg/ml) 3h / hEPO expression (pg/ml) 6 h / hEPO expression (pg/ml) 24 h: 0.5 mpk
Description: Sample formulations of nanoparticle compositions including different lipids are generally first evaluated according to Luc expression in vivo. The activity of several such compositions was further evaluated using an mRNA encoding hEPO. Nanoparticle compositions including Compounds 6, 18, 25, 30, 108-112, 60, and 122, or MC3 were prepared according to Example 2.
The expression of hEPO and cytokine induction in mice intravenously administered a nanoparticle composition at a dose of 0.5 mpk were measured at 3, 6, and 24 hours. […] The expression of hEPO in mice intramuscularly administered a nanoparticle composition from Table 1B at a dose of 0.01 mpk were measured at 3, 6, and 24 hours. […] (see also FIG. 9.)
Table 12 compares the nanoparticle compositions including compounds according to Formula (I), (IA), (II), (IIa), (IIb), (IIc), (IId) or (IIe) to the compositions including MC3 on the basis of expression and flux levels. […] Thus, these lipids may be useful in nanoparticle composition therapeutics. […]

[3] = test system: non-human primates; experiment: Tolerability in non-human primates (clinical chemistry, hematology, observations); type: in vivo, Cynomolgus monkeys
Description: The tolerability and efficacy of nanoparticle compositions to non-human primates was also investigated using a sample formulation including Compound 18. The formulation was prepared according to the standard MC3 formulation described above and included an hEPO mRNA. Primates were administered a single dose of 0.05 (Group 1), 0.3 (Group 2), or 1.0 (Group 3) mpk via intravenous infusion for 60 minutes. Three primates were administered each dose. Expression of hEPO was measured prior to dosing and at 2, 6, 24, 48, and 96 hours post-treatment (Table 26). Table 28 includes levels of indicators of complement activation, while Table 29 includes cytokine induction data.
In general, lower doses were better tolerated. High doses induced body temperature elevation and hunched posture, which is similar to the behavior observed for primates administered higher doses of MC3 formulations.

[4] = test system: rat; experiment: Clinical chemistry and hematology in rat after intravenous administration; type: in vivo; design: unit not given here; details: 2 mpk, 48 h post dose
Description: Sample formulations of nanoparticle compositions including different lipids were administered intravenously to rat at a dose of 2 mpk. The expression of various clinical markers was evaluated at 48 h post dose and compared to that induced by administration of MC3 formulations or phosphate buffered saline (PBS).
Table 19 summarizes the hEPO expression, IP-10 induction, liver and spleen levels, and alanine aminotransferase (ALT) and aspartate aminotransferase (AST) measured upon intravenous administration of formulations including Compounds 48, 49, and 50 to rat at 0.2 and 2 mpk and hEPO mRNA. hEPO concentrations were measured 6 hours after administration, while cytokine induction and liver and spleen levels were measured 48 hours after administration. hEPO and IP-10 concentrations are presented in pg/ml, while liver levels are provided in ng/g. ALT and AST levels are presented in international units.

[5] = hEPO mRNA, lipid:DSPC:Chol:PEG-DMG (50:10:38.5:1.5) (Table 10)
[6] = nanoparticle composition lipid:DSPC:cholesterol:PEG-DMG 50:10:38.5:1.5 mol %, mRNA encoding Luc or hEPO (Table 1A)

Structure (SMILES) | Size (nm) [1, 5] [nm] | Diameter (nm) ([1]; mRNA encoding anti-HA antibody (Table 33)) | PDI ([1]; nanoparticle composition 50:10:38.5:1.5 mol % (Table 1A)) | Size (nm) [1, 6] [nm] | hEPO concentrations compared with MC3 formulations at each time point ([2]; 0.5 mpk, 3, 6 and 24 hours) | hEPO expression (pg/ml) 3h [2] [pg/mL] | hEPO expression (pg/ml) 6 h [2] [pg/mL] | hEPO expression (pg/ml) 24 h [2] [pg/mL] | White blood cell counts ([3]; non-human primates, 0.05, 0.3 or 1.0 mpk) | reticulocyte counts on Day 5 ([3]; non-human primates, all groups) | Alanine aminotransferase (Concentration) [4] | Aspartate aminotransferase (Concentration) [4] | Lymphocytes (Concentration) [4] | Monocytes (Concentration) [4] | Neutrophils (Concentration) [4] | Size (nm) ([1]; formulated with hEPO mRNA (Table 1B))
CCCCCCCCCOC(=O)CCCCCCCN(CCO)CCCCCCCC(=O)OC(CCCCCCCC)CCCCCCCC [Compound 18, Heptadecan-9-yl 8-((2-hydroxyethyl)(8-(nonyloxy)-8-oxooctyl)amino)octanoate] | 78.6 | 76.8 | 0.042 | 86.2 | higher hEPO concentrations than MC3 formulations | 3e+06 | 3.38e+06 | 1.8e+06 | slightly elevated in animals in the high dose group | marked increase |  |  |  |  |  | 
CCCCCCCCCCCOC(=O)CCCCCN(CCO)CCCCCCCC(=O)OC(CCCCCCCC)CCCCCCCC [Compound 25, Heptadecan-9-yl 8-((2-hydroxyethyl)(6-oxo-6-(undecyloxy)hexyl)amino)octanoate] |  |  |  |  |  |  |  |  |  |  | 52 | 124.5 | 15924 | 2122 | 1998 | 
CCCCCC=CCC=CCCCCCCCCC(CCCCCCCCC=CCC=CCCCCC)OC(=O)CCCN(C)C (centres unmarked) [MC3, heptatriaconta-6,9,28,31-tetraen-19-yl 4-(dimethylamino)butanoate, reference compound] | 73.7 |  |  | 79.7 |  | 1.57e+06 | 1.83e+06 | 810000 |  |  | 339 | 325 | 19976 | 1429 | 4962.5 | 57.7
